These results are taken from PubChem BioAssay AID226 (DTP/NCI, 2004).

The test deals with B6C3F1 mice, intracerebral ependymoblastoma, median survival T/C. In words: NCI In Vivo Anticancer Drug Screen. Data for tumor model Ependymoblastoma (intracerebral) in B6C3F1 mice. Conditions: endpoint: median survival time, higher = longer survival. On the procedure:
The antitumor activity of compounds was measured in mice bearing transplantable tumors. Survival or tumor size were measured and the results are expressed as the measurement made in the treated group (T) divided by the measurement made in the vehicle treated control group (C). The tumor model used in this assay is Ependymoblastoma (intracerebral) in B6C3F1 mice

The mark [1] stands for this setting: dose: 32.0 mg/kg/injection, schedule: Q01DX005 (ip), vehicle: saline with Tween-80.
Setting [2] is: dose: 64.0 mg/kg/injection, schedule: Q01DX005 (ip), vehicle: saline with Tween-80.
The mark [3] stands for this setting: dose: 8.0 mg/kg/injection, schedule: Q01DX005 (ip), vehicle: saline with Tween-80.
The mark [4] stands for this setting: dose: 16.0 mg/kg/injection, schedule: Q01DX005 (ip), vehicle: saline with Tween-80.
The mark [5] stands for this setting: dose: 4.0 mg/kg/injection, schedule: Q01DX009 (ip), vehicle: saline with Tween-80.
Where [6] appears, read: dose: 8.0 mg/kg/injection, schedule: Q01DX009 (ip), vehicle: saline with Tween-80.

Several values for one entry are separate records, joined by “and”; a condition that tells them apart may be missing. Equal entries are not always repeated. Inconclusive results and toxic doses are left out.

`O=C1C(NCCO)=C(N2CC2)C(=O)C(NCCO)=C1N1CC1`: the T/C (dose: 0.06 mg/kg/injection, schedule: Q01DX005 (ip), vehicle: saline) is 112 % of control; the T/C (dose: 0.12 mg/kg/injection, schedule: Q01DX005 (ip), vehicle: saline) was 113 % of control; the T/C (dose: 0.19 mg/kg/injection, schedule: Q01DX005 (ip), vehicle: saline) is 96 % of control; the T/C (dose: 0.25 mg/kg/injection, schedule: Q01DX005 (ip), vehicle: saline) is 91 % of control and 120 % of control; the T/C (dose: 0.38 mg/kg/injection, schedule: Q01DX005 (ip), vehicle: saline) is 100 % of control; the T/C (dose: 0.5 mg/kg/injection, schedule: Q01DX005 (ip), vehicle: saline) was 106 % of control. For the same compound, the T/C was 117 % of control (dose: 0.75 mg/kg/injection, schedule: Q01DX005 (ip), vehicle: saline); 114 % of control (dose: 1.0 mg/kg/injection, schedule: Q01DX005 (ip), vehicle: saline); 120 % of control (dose: 1.5 mg/kg/injection, schedule: Q01DX005 (ip), vehicle: saline); 110 % of control (dose: 2.0 mg/kg/injection, schedule: Q01DX005 (ip), vehicle: saline).

With `CCC(=O)O[C@H]1CC[C@H]2[C@@H]3[C@@H](C)CC4=CC(=O)CC[C@]4(C)[C@H]3CC[C@]12C`, the T/C runs as follows: under setting [1], 99 % of control and 106 % of control; under setting [2], 97 % of control and 106 % of control; (dose: 128.0 mg/kg/injection, schedule: Q01DX005 (ip), vehicle: saline with Tween-80) 97 % of control and 101 % of control; (dose: 256.0 mg/kg/injection, schedule: Q01DX005 (ip), vehicle: saline with Tween-80) 101 % of control and 89 % of control; (dose: 512.0 mg/kg/injection, schedule: Q01DX005 (ip), vehicle: saline with Tween-80) 93 % of control and 100 % of control; (dose: 768.0 mg/kg/injection, schedule: Q01DX005 (ip), vehicle: saline with Tween-80) 94 % of control.

Turning to `CCCCCCCCN(C)/N=N/c1nc[nH]c1C(N)=O`, the T/C runs as follows: under setting [3], 119 % of control; under setting [4], 122 % of control and 123 % of control; under setting [1], 113 % of control; under setting [2], 111 % of control.

`ClC(Cl)=C(Cl)Cl`: the T/C was 110 % of control and 122 % of control (dose: 25.0 mg/kg/injection, schedule: Q01DX005 (ip), vehicle: other); 100 % of control and 113 % of control (dose: 50.0 mg/kg/injection, schedule: Q01DX005 (ip), vehicle: other); 101 % of control and 105 % of control (dose: 100.0 mg/kg/injection, schedule: Q01DX005 (ip), vehicle: other); 93 % of control and 97 % of control (dose: 200.0 mg/kg/injection, schedule: Q01DX005 (ip), vehicle: other).

In the case of `O=NN(CCCl)C(=O)NCCCl`, the T/C is, setting by setting: (dose: 0.5 mg/kg/injection, schedule: Q01DX009 (ip), vehicle: saline with Tween-80) 114 % of control; (dose: 1.0 mg/kg/injection, schedule: Q01DX001 (ip), vehicle: saline) 96 % of control and 105 % of control; (dose: 1.0 mg/kg/injection, schedule: Q01DX005 (ip), vehicle: saline + alcohol) 100 % of control and 115 % of control; (dose: 1.0 mg/kg/injection, schedule: Q01DX005 (ip), vehicle: saline with Tween-80) 99 % of control and 103 % of control; (dose: 1.0 mg/kg/injection, schedule: Q01DX009 (ip), vehicle: saline with Tween-80) 118 % of control; (dose: 2.0 mg/kg/injection, schedule: Q01DX001 (ip), vehicle: saline) 96 % of control and 105 % of control. Besides, the T/C by setting is: (dose: 2.0 mg/kg/injection, schedule: Q01DX005 (ip), vehicle: saline + alcohol) 103 % of control and 107 % of control and 119 % of control; (dose: 2.0 mg/kg/injection, schedule: Q01DX005 (ip), vehicle: saline with Tween-80) 93 % of control and 116 % of control; (dose: 2.0 mg/kg/injection, schedule: Q01DX009 (ip), vehicle: saline with Tween-80) 153 % of control; (dose: 2.5 mg/kg/injection, schedule: Q01DX001 (ip), vehicle: saline with Tween-80) 109 % of control; (dose: 4.0 mg/kg/injection, schedule: Q01DX001 (ip), vehicle: saline) 106 % of control and 111 % of control; (dose: 4.0 mg/kg/injection, schedule: Q01DX005 (ip), vehicle: saline + alcohol) 170 % of control. Also, the T/C under setting [5] was 241 % of control; the T/C (dose: 5.0 mg/kg/injection, schedule: Q01DX001 (ip), vehicle: alcohol) was 113 % of control; the T/C (dose: 5.0 mg/kg/injection, schedule: Q01DX001 (ip), vehicle: saline with Tween-80) is 113 % of control; the T/C (dose: 7.5 mg/kg/injection, schedule: Q01DX001 (ip), vehicle: saline + alcohol) is 107 % of control; the T/C (dose: 8.0 mg/kg/injection, schedule: Q01DX001 (ip), vehicle: saline) was 108 % of control and 110 % of control; the T/C (dose: 8.0 mg/kg/injection, schedule: Q01DX005 (ip), vehicle: saline + alcohol) is 204 % of control and 218 % of control. For the same compound, the T/C under setting [3] was 171 % of control and 240 % of control; the T/C under setting [6] is 106 % of control; the T/C (dose: 10.0 mg/kg/injection, schedule: Q01DX001 (ip), vehicle: saline with Tween-80) is 99 % of control; the T/C (dose: 10.0 mg/kg/injection, schedule: Q01DX005 (ip), vehicle: saline with Tween-80) is 214 % of control; the T/C (dose: 16.0 mg/kg/injection, schedule: Q01DX001 (ip), vehicle: saline) is 150 % of control and 163 % of control; the T/C (dose: 16.0 mg/kg/injection, schedule: Q01DX005 (ip), vehicle: saline + alcohol) is 376 % of control. Further, the T/C by setting is: under setting [4], 105 % of control; (dose: 20.0 mg/kg/injection, schedule: Q01DX001 (ip), vehicle: alcohol) 167 % of control; (dose: 20.0 mg/kg/injection, schedule: Q01DX001 (ip), vehicle: saline with Tween-80) 117 % of control; (dose: 24.0 mg/kg/injection, schedule: Q01DX001 (ip), vehicle: saline) 300 % of control; (dose: 30.0 mg/kg/injection, schedule: Q01DX001 (ip), vehicle: saline + alcohol) 177 % of control; (dose: 32.0 mg/kg/injection, schedule: Q01DX001 (ip), vehicle: saline) 196 % of control and 226 % of control. Further, the T/C by setting is: (dose: 40.0 mg/kg/injection, schedule: Q01DX001 (ip), vehicle: alcohol) 215 % of control; (dose: 40.0 mg/kg/injection, schedule: Q01DX001 (ip), vehicle: saline with Tween-80) 112 % of control; (dose: 60.0 mg/kg/injection, schedule: Q01DX001 (ip), vehicle: saline + alcohol) 359 % of control; (dose: 64.0 mg/kg/injection, schedule: Q01DX001 (ip), vehicle: saline) 95 % of control.

With `CNc1nc(N(C)C)nc(N(C)C)n1`, the T/C reads like this: (dose: 16.0 mg/kg/injection, schedule: Q01DX005 (ip), vehicle: saline) 98 % of control and 111 % of control; (dose: 32.0 mg/kg/injection, schedule: Q01DX005 (ip), vehicle: saline) 101 % of control; (dose: 64.0 mg/kg/injection, schedule: Q01DX005 (ip), vehicle: saline) 104 % of control and 115 % of control; (dose: 128.0 mg/kg/injection, schedule: Q01DX005 (ip), vehicle: saline) 96 % of control and 111 % of control.

`CN(Cc1cnc2nc(N)nc(N)c2n1)c1ccc(C(=O)N[C@@H](CCC(=O)O)C(=O)O)cc1`: the T/C by setting is: under setting [5], 118 % of control; (dose: 4.0 mg/kg/injection, schedule: Q04DX003 (ip), vehicle: saline with Tween-80) 118 % of control; under setting [6], 106 % of control; (dose: 8.0 mg/kg/injection, schedule: Q04DX003 (ip), vehicle: saline with Tween-80) 110 % of control; (dose: 16.0 mg/kg/injection, schedule: Q01DX009 (ip), vehicle: saline with Tween-80) 111 % of control; (dose: 16.0 mg/kg/injection, schedule: Q04DX003 (ip), vehicle: saline with Tween-80) 98 % of control. Where the note is “dose: 32.0 mg/kg/injection, schedule: Q01DX009 (ip), vehicle: saline with Tween-80”, the T/C is 109 % of control.

`O=NN(CCF)C(=O)NC1CCC(=O)NC1=O` (stereo not drawn): the T/C is, setting by setting: (dose: 5.18 mg/kg/injection, schedule: Q01DX005 (ip), vehicle: Klucel (hydroxypropylcellulose) (HPC)) 186 % of control; (dose: 8.64 mg/kg/injection, schedule: Q01DX005 (ip), vehicle: Klucel (hydroxypropylcellulose) (HPC)) 232 % of control; (dose: 14.4 mg/kg/injection, schedule: Q01DX005 (ip), vehicle: Klucel (hydroxypropylcellulose) (HPC)) 357 % of control; (dose: 24.0 mg/kg/injection, schedule: Q01DX005 (ip), vehicle: Klucel (hydroxypropylcellulose) (HPC)) 357 % of control.
